In patent US20250064941A1, “SIGLEC LIGANDS, CONJUGATES, AND METHODS OF USE THEREOF” (Osprey Biopharmaceuticals, Inc., priority 2023, published 2025):

Key:
[1] = target: T1, human Siglec-2/CD22 protein (Homo sapiens, UniProt P20273); assay: SPR binding affinity to human CD22; conditions: steady-state analysis
T1 construct: purchased Acro Biosystems SI2-H82E3
T1 sequence (P20273 20-847): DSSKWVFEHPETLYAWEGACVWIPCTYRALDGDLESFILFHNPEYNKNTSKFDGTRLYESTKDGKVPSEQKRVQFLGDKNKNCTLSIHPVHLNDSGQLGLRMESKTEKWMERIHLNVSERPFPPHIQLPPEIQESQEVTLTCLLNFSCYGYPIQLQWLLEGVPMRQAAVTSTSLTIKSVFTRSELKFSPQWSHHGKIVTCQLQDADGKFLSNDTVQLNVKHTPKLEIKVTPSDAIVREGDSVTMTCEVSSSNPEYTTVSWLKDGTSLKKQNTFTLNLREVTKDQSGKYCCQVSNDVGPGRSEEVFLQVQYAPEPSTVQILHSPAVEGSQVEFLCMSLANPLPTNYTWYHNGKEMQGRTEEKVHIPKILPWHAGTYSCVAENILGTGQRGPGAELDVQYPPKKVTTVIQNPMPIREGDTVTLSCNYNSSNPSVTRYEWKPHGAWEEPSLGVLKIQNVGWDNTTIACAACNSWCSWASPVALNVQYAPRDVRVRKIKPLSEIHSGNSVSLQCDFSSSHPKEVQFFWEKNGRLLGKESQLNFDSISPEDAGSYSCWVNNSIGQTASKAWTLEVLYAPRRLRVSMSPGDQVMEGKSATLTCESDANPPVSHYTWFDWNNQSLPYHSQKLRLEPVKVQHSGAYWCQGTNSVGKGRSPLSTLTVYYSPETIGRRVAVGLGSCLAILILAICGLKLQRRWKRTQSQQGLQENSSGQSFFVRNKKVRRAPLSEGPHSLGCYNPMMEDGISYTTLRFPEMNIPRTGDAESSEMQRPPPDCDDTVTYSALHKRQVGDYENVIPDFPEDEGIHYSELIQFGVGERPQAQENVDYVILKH
Protocol: (§1) Prior to immobilization, CD22 proteins were treated with SialoExo (Genovis, Cat #G1-SM1-020) for 4 hours at 37° C. to remove native sialic acid residues.
(§2) Capture of biotinylated CD22 constructs was performed using a Cytiva SA chip (BR100398) on a Biacore 8K instrument.
(§3) Binding experiments of Siglec-ligand conjugated proteins or Siglec ligand compounds were performed on the surfaces prepared above in 10 mM HEPES, 150 mM NaCl, 0.05% Tween-20, pH 7.5, 1% DMSO as the running buffer. […] The compounds were then allowed to dissociate from the surface for 120 seconds. […] Solvent correction was performed using 0.5, 1, 1.5, and 2% DMSO spike into running buffer without DMSO. […] Data was analyzed using steady-state analysis in Biacore Insight Evaluation Software, version 3.0 for Siglec ligand compounds.

[2] = target: T2, mouse Siglec-2-Fc-Avi (CD22) (Mus musculus, UniProt P35329); assay: SPR binding affinity to mouse CD22; conditions: steady-state analysis
T2 construct: made in house
T2 sequence (P35329 22-708 limits assumed): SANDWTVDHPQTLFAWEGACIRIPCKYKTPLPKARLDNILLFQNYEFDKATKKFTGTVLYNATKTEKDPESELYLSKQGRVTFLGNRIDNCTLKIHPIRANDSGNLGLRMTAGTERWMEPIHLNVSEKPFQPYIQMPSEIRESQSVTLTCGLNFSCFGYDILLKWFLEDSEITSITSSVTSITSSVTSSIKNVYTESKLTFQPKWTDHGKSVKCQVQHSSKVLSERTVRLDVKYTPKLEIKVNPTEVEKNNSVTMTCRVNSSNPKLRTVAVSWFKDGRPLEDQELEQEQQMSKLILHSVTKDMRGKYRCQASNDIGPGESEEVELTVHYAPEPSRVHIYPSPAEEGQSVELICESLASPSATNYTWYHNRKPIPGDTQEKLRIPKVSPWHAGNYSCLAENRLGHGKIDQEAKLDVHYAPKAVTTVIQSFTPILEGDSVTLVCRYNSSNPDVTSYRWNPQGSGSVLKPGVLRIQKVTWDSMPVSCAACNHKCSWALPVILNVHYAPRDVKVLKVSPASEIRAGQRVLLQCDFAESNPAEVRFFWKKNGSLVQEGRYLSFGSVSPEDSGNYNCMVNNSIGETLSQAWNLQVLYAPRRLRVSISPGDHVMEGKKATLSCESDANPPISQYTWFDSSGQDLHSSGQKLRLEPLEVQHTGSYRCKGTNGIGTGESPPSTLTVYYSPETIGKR
Protocol: as §1, §2, §3

| Structure (SMILES) | Kd [1] [nM] | Kd [2] [nM] |
| --- | --- | --- |
| C#CCOCCOCCO[C@]1(C(=O)O)C[C@H](O)[C@@H](NC(C)=O)[C@H]([C@H](O)[C@H](O)CNCc2cccc(Oc3ccccc3)c2)O1 [Compound 17, (2R,4S,5R,6R)-5-acetamido-6-((1R,2R)-1,2-dihydroxy-3-((3-phenoxybenzyl)amino)propyl)-4-hydroxy-2-(2-(2-(prop-2-yn-1-yloxy)ethoxy)ethoxy)tetrahydro-2H-pyran-2-carboxylic acid] | < 1000 | > 10000 |
| C#CCOCCOCCNc1c(NCCCCCCO[C@]2(C(=O)O)C[C@H](O)[C@@H](NC(=O)CO)[C@H]([C@H](O)[C@H](O)CNC(=O)c3cccc(Oc4ccccc4)c3)O2)c(=O)c1=O [Compound 39, (2R,4S,5R,6R)-6-((1R,2R)-1,2-dihydroxy-3-(3-phenoxybenzamido)propyl)-2-((6-((3,4-dioxo-2-((2-(2-(prop-2-yn-1-yloxy)ethoxy)ethyl)amino)cyclobut-1-en-1-yl)amino)hexyl)oxy) -4-hydroxy-5-(2-hydroxyacetamido) tetrahydro-2H-pyran-2-carboxylic acid] | < 1000 | 1000 to 10000 |
| C#CCOCCCCCCO[C@]1(C(=O)O)C[C@H](O)[C@@H](NC(=O)NCC)[C@H]([C@H](O)[C@H](O)CNC(=O)Cc2ccc(Cl)cc2)O1 [Compound 87, (2R,4S,5R,6R)-6-((1R,2R)-3-(2-(4-chlorophenyl)acetamido)-1,2-dihydroxypropyl)-5-(3-ethylureido)-4-hydroxy-2-((6-(prop-2-yn-1-yloxy)hexyl)oxy)tetrahydro-2H-pyran-2-carboxylic acid] | < 1000 | 1000 to 10000 |
| C#CCOCCCCCCO[C@]1(C(=O)O)C[C@H](O)[C@@H](NC(=O)c2ccccc2)[C@H]([C@H](O)[C@H](O)CNC(=O)Cc2ccc(Cl)cc2)O1 [Compound 92, (2R,4S,5R,6R)-5-benzamido-6-((1R,2R)-3-(2-(4-chlorophenyl)acetamido)-1,2-dihydroxypropyl)-4-hydroxy-2-((6-(prop-2-yn-1-yloxy)hexyl)oxy)tetrahydro-2H-pyran-2-carboxylic acid] | < 1000 | > 10000 |
| C#CCOP(=O)(O)OCCCCCO[C@]1(C(=O)O)C[C@H](O)[C@@H](NC(=O)CO)[C@H]([C@H](O)[C@H](O)CNC(=O)Cc2ccc(Cl)cc2)O1 [Compound 95, (2R,4S,5R,6R)-6-((1R,2R)-3-(2-(4-chlorophenyl)acetamido)-1,2-dihydroxypropyl)-4-hydroxy-2-((5-((hydroxy(prop-2-yn-1-yloxy)phosphoryl)oxy)pentyl)oxy)-5-(2-hydroxyacetamido)tetrahydro-2H-pyran-2-carboxylic acid] | < 1000 | 1000 to 10000 |
| C#CCOP(=O)(O)OCCCCO[C@]1(C(=O)O)C[C@H](O)[C@@H](NC(=O)CO)[C@H]([C@H](O)[C@H](O)CNC(=O)Cc2ccc(Cl)cc2)O1 [Compound 115, (2R,4S,5R,6R)-6-((1R,2R)-3-(2-(4-chlorophenyl)acetamido)-1,2-dihydroxypropyl)-4-hydroxy-2-(4-((hydroxy(prop-2-yn-1-yloxy)phosphoryl)oxy)butoxy)-5-(2-hydroxyacetamido)tetrahydro-2H-pyran-2-carboxylic acid] | < 1000 | 1000 to 10000 |
| C#CCOC(=O)NCc1ccc(CO[C@]2(C(=O)O)C[C@H](O)[C@@H](NC(=O)CO)[C@H]([C@H](O)[C@H](O)CNC(=O)Cc3ccc(Cl)cc3)O2)cc1 [Compound 117, (2R,4S,5R,6R)-6-((1R,2R)-3-(2-(4-chlorophenyl)acetamido)-1,2-dihydroxypropyl)-4-hydroxy-5-(2-hydroxyacetamido)-2-((4-((((prop-2-yn-1-yloxy)carbonyl)amino)methyl)benzyl)oxy)tetrahydro-2H-pyran-2-carboxylic acid] | < 1000 | < 1000 |
| C#CCCOc1ccc(CO[C@]2(C(=O)O)C[C@H](O)[C@@H](NC(=O)CO)[C@H]([C@H](O)[C@H](O)CNC(=O)Cc3ccc(N4CCOCC4)cc3)O2)cc1 [Compound 139, (2R,4S,5R,6R)-2-((4-(but-3-yn-1-yloxy)benzyl)oxy)-6-((1R,2R)-1,2-dihydroxy-3-(2-(4-morpholinophenyl)acetamido)propyl)-4-hydroxy-5-(2-hydroxyacetamido)tetrahydro-2H-pyran-2-carboxylic acid] | 1000 to 10000 | < 1000 |
| C#CCOCCCCCCO[C@]1(C(=O)O)C[C@H](O)[C@@H](Nc2c(NC)c(=O)c2=O)[C@H]([C@H](O)[C@H](O)CNC(=O)Cc2ccc(Cl)cc2)O1 [Compound 191, (2R,4S,5R,6R)-6-((1R,2R)-3-(2-(4-chlorophenyl)acetamido)-1,2-dihydroxypropyl)-4-hydroxy-5-((2-(methylamino)-3,4-dioxocyclobut-1-en-1-yl)amino)-2-((6-(prop-2-yn-1-yloxy)hexyl)oxy)tetrahydro-2H-pyran-2-carboxylic acid] | < 1000 | > 10000 |
| C#CCOCCCCCCO[C@]1(C(=O)O)C[C@H](O)[C@@H](NC(=O)CO)[C@H]([C@H](O)[C@H](O)CNC(=O)Cc2ccc(N3CCC(O)CC3)cc2)O1 [Compound 194, (2R,4S,5R,6R)-6-((1R,2R)-1,2-dihydroxy-3-(2-(4-(4-hydroxypiperidin-1-yl)phenyl)acetamido)propyl)-4-hydroxy-5-(2-hydroxyacetamido)-2-((6-(prop-2-yn-1-yloxy)hexyl)oxy)tetrahydro-2H-pyran-2-carboxylic acid] | 1000 to 10000 | 1000 to 10000 |
| C#CCOCCCCCCO[C@]1(C(=O)O)C[C@H](O)[C@@H](NC(=O)CO)[C@H]([C@H](O)[C@H](O)CNC(=O)Cc2ccc(-c3ccc(NC(C)=O)cc3)cc2)O1 [Compound 204, (2R,4S,5R,6R)-6-((1R,2R)-3-(2-(4′-acetamido-[1,1′-biphenyl]-4-yl)acetamido)-1,2-dihydroxypropyl)-4-hydroxy-5-(2-hydroxyacetamido)-2-((6-(prop-2-yn-1-yloxy)hexyl)oxy)tetrahydro-2H-pyran-2-carboxylic acid] | < 1000 | < 1000 |
| C#CCOCCOP(=O)(O)OCCCCCCO[C@]1(C(=O)O)C[C@H](O)[C@@H](NC(=O)CO)[C@H]([C@H](O)[C@H](O)CNC(=O)Cc2ccc(C(F)F)cc2)O1 [Compound 215, (2R,4S,5R,6R)-6-((1R,2R)-3-(2-(4-(difluoromethyl)phenyl)acetamido)-1,2-dihydroxypropyl)-4-hydroxy-2-((6-((hydroxy(2-(prop-2-yn-1-yloxy)ethoxy)phosphoryl)oxy)hexyl)oxy)-5-(2-hydroxyacetamido)tetrahydro-2H-pyran-2-carboxylic acid] | < 1000 | > 10000 |
| C#CCOCCOCCNc1c(NCCCCCCO[C@]2(C(=O)O)C[C@H](O)[C@@H](NC(=O)CO)[C@H]([C@H](O)[C@H](O)CNC(=O)c3ccccc3Cl)O2)c(=O)c1=O [Compound 229, (2R,4S,5R,6R)-6-((1R,2R)-3-(2-chlorobenzamido)-1,2-dihydroxypropyl)-2-((6-((3,4-dioxo-2-((2-(2-(prop-2-yn-1-yloxy)ethoxy)ethyl)amino)cyclobut-1-en-1-yl)amino)hexyl)oxy)-4-hydroxy-5-(2-hydroxyacetamido)tetrahydro-2H-pyran-2-carboxylic acid] | 1000 to 10000 | 1000 to 10000 |
